# Measurements published in patent publication US7678386B2, “Liposomes coated with selected antibodies that bind to aminophospholipids” (Board of Regents the University of Texas, priority 2002, dated 2010).
# Where two headings read alike, the source gives them in different places.
# Experiments:
# [1] = Reactivity with plastic-immobilized phospholipids (ELISA), panel; assay type: binding
# Description: Phospholipids were dissolved in n-hexane to a concentration of 50 μg/ml. 100 μl of this solution was added to wells of 96-well microtiter plates. After evaporation of the solvent in air, the plates were blocked for 2 h with 10% fetal bovine serum diluted in DPBS containing 2 mM Ca^2+ (binding buffer).
# 9D2 antibody or annexin V were diluted in the binding buffer in the presence of 10% serum at an initial concentration of 6.7 nM. Serial two-fold dilutions were prepared in the plates (100 μl per well). The plates were then incubated for 2 h at room temperature. The plates were washed and the 9D2 and annexin V were detected by goat anti-rat IgM conjugated to HRP and rabbit anti-human annexin V followed by goat anti-rabbit IgG conjugated to HRP (all diluted 1:1000), respectively. Secondary reagents were detected by using chromogenic substrate OPD followed by reading plates at 490 nm using a microplate reader (Molecular Devices, Palo Alto, Calif.).
# The specificity of the 9D2 antibody binding was validated by using control rat IgM of irrelevant specificity (Pharmingen, San Diego, Calif.). The specificity of annexin V binding to phospholipids, which is Ca^2+-dependent, was determined by diluting the reagent in the DPBS containing 5 mM EDTA. Additional negative controls consisted of washing the plates with the binding buffer containing 0.2% of a detergent Tween 20. This treatment extracts lipids, thus removing the phospholipid that was absorbed to plastic. Neither 9D2 antibody nor annexin V bound to detergent-washed plates.
# [2] = ELISA on plates coated with phospholipids (specificity); assay type: binding; details: identical antibody concentration
# Description: (§1) The protocol entails coating 96-well plate with PS as follows: dilute the PS stock solution in n-hexane to 10 μg/ml and mix well. Add 50 μl to each well and allow this to evaporate for one hour. Add 200 μl of 10% serum (or other blocking buffer) to each well, cover and maintain at room temperature for 2 hours or overnight at 4° C. Wash the plate three times with PBS. Add the primary antibody (dilute in blocking buffer) and incubate for 2 hours at 37° C. Wash three times with PBS. Add 100 μl/well of secondary antibody (typically goat. anti-mouse IgG-HRP or other appropriate secondary antibody) and incubate for 1 hour at 37° C. Wash the plate three times with PBS. Develop the ELISA by adding 100 μl of developing solution to each of the wells, develop for 10 minutes, then add 100 μl of stop solution to each plate and read the O.D. at 490 nm.
# The specificity of the antibodies was determined by ELISA using plates coated with the following phospholipids: PS, phosphatidylserine; PE, phosphatidylethanolamine; PI, phosphatidylinositol: PA. phosphatidic acid; PG, phosphatidylglycerol; PC, phosphatidylcholine: CL, cardiolipin; and SM, sphingomyelin.
# The 1B9, 2G7 and 7C5 antibodies behave essentially the same. These antibodies recognize only PS and require serum or serum proteins for binding to PS. […]
# [3] = Anti-PS ELISA on PS-coated plates; assay type: binding
# Description: The anti-PS ELISA used in the present studies is conducted as follows. Unless particular differences are specified, this is the format of the ELISA used throughout the studies of the present application.
# The ELISA is exemplified using the antigen PS (P-6641 25 mg 10 mg/ml (solvent is Chloroform:MeOH 95:5) in 2.5 ml bottle). Other phospholipids can be used using the same protocol. The PS (or other phospholipids) stock solution should be aliquoted and stored in an airtight container at −30° C. The preferred 96 well plates are Dynatech U bottom Immulon 1 (from Dynatech Labs. Cat# 011-010-3550).
# The standard blocking buffer used herein is 10% bovine serum dissolved in PBS. Other blocking solutions are suitable, but any detergents should be excluded from block and wash solutions. The primary antibody is the test sample or admixture. The preferred secondary antibody is goat, anti-mouse IgG-HRP. The developing solutions are: 10 ml of 0.2 M Na2PO4, 10 ml of 0.1 M citric acid, one 10 mg tablet of OPD, and 10 μl of hydrogen peroxide. The stop solution is 0.18 M H2SO4.
# as §1
# [4] = system: Factor Xa generation on IL-1α-stimulated bEnd.3 cells; assay: Factor Xa formation induced by coaguligand (chromogenic assay); assay type: cell-based, mouse; details: 10 μg per ml
# Description: The ability of Annexin V to affect Factor Xa formation induced by coaguligand was determined by a chromogenic assay. IL-1α-stimulated bEnd.3 cells were incubated with anti-VCAM-•tTF and permeabilized by saponin. Annexin V was added at concentrations ranging from 0.1 to 10 μg/ml and cells were incubated for 30 min. before addition of diluted Proplex T. The amount of Factor Xa generated in the presence or absence of Annexin V was determined. Each treatment was performed in duplicate and repeated at least twice.
# [5] = Competition of 9D2 and annexin V for binding to immobilized PS; details: competitor in 10-fold molar excess
# Description: Biotinylated 9D2 antibody and annexin V were prepared by incubating purified proteins with a 10-fold molar excess of N-hydroxysuccinimide biotin (Sigma, Mo.) for 1 h at room temperature. Free biotin was removed by dialysis against PBS. […] For competition studies, […] biotinylated proteins were premixed with a 10-fold molar excess of unmodified proteins. The mixtures were then added to PS-coated plates. Bound reagents were detected by streptavidin-HRP conjugate diluted 1:1000. The binding to PS of each reagent in the absence of a competitor was taken as the 100% value.
substance,measurement,setting,value
Annexin V: high affinity PS binding ligand; natural ligand of anionic phospholipids and PE,binding to anionic phospholipids in the presence of 5 mM EDTA,[1],abolished
same,"binding to heparin, heparan sulfate or double or single stranded DNA",[1],did not bind detectably
same,order of strength of binding to phospholipids in ELISA,[1]; 10% serum,PI>PS=PE=PA=CL>PG
same,Relative Strength of Reactivity on ELISA,[2],PS = PE = PI = PA > CL > PG
same,EC50,"[3]; MW used for conversion: IgM 900 kDa, IgG 150 kDa, Annexin V 36 kDa, read-out: EC50",2.77 nM
same,EC50,[3]; dilutions of tissue culture supernatants,0.100 µg/mL
same,Affinity vs. 3SB (-fold increased),[3]; from EC50 in nM,0.18 -fold
same,Binding vs. 3SB (-fold increased),[3]; from EC50 in μg/ml,4.68 -fold
same,inhibition of factor Xa production,[4],58%
same,Binding (% Control) of biotinylated 9D2 to PS,[5],93%
same,Binding (% Control) of biotinylated annexin V to PS,[5],8%
